Test results published in patent publication US20220387958A1, “APPARATUS AND METHOD FOR ITERATIVE POLYMER SYNTHESIS” (BACHEM AG, priority 2019, published 2022).

Columns and labels:
Assay type in all cases: physicochemical
[1] = Concentration in saturated dimethyl formamide solution by analytical RP-UHPLC; conditions: room temperature
Experimental: The concentration of the same amino acids in saturated solutions of dimethyl formamide at room temperature was determined by analytical reversed phase ultrahigh pressure liquid chromatography. The values ranged from below 200 mg/ml for Fmoc-Pro-OH over around 400 mg/ml for Fmoc-Ala-OH to above 600 mg/ml for Fmoc-Gly-OH.

[2] = Flowability of amino acid derivative powders in unconfined state (rotating drum, mass flow through a funnel, angle of repose); conditions: powder, tests without confinement
Experimental: (§1) The flowability of 15 samples of amino acid powders was tested. The flowability of each powder in unconfined state was assessed by powder flow analysis in a rotating drum (“revolution analyzer”), by testing mass flow through a funnel, and by determining the angle of repose. The latter two measurements were performed according to chapter 1174 of the U.S. Pharmacopeia. The flowability of the samples at a confided state was analyzed by measurements with an annular shear cell and by using the Evolution Powder Tester device by PS Prozesstechnik GmbH, Basel. In these tests, the samples were initially densified with different pre-consolidation forces.

[3] = Flowability of amino acid derivative powders in confined state (annular shear cell, Evolution Powder Tester, pre-consolidation); conditions: tests with confinement, densified with pre-consolidation forces
Experimental: as §1

Row | concentration in saturated solution [1] | flowability [2] | flowability [3] | SMILES
1 | below 200 mg/ml | poor flowability parameters | good flowability | O=C(O)[C@@H]1CCCN1C(=O)OCC1c2ccccc2-c2ccccc21 [Fmoc-Pro-OH]
2 | above 600 mg/ml | good | poor flowability | O=C(O)CNC(=O)OCC1c2ccccc2-c2ccccc21 [Fmoc-Gly-OH]
3 | around 400 mg/ml | poor flowability parameters | Medium values | C[C@H](NC(=O)OCC1c2ccccc2-c2ccccc21)C(=O)O [Fmoc-Ala-OH]
4 |  | good flowability |  | CSCC[C@H](NC(=O)OCC1c2ccccc2-c2ccccc21)C(=O)O [Fmoc-Met-OH]
5 |  |  | poor flowability | CC(C)(C)OC(=O)NCCCC[C@H](NC(=O)OCC1c2ccccc2-c2ccccc21)C(=O)O [Fmoc-Lys(Boc)-OH]
6 |  | good flowability | good flowability | O=C(N[C@@H](CSC(c1ccccc1)(c1ccccc1)c1ccccc1)C(=O)O)OCC1c2ccccc2-c2ccccc21 [Fmoc-Cys(Trt)-OH]
